According to patent US10947271B2, “Antibacterial agents” (THE UNIVERSITY OF QUEENSLAND, priority 2014, dated 2021):

How the values were obtained:
Assay type in all cases: cell-based
Details in all cases: 24 h incubation, visual reading
[1] = test system: Enterococcus faecium MDR Van A ATCC 51559; assay: MIC assay, E. faecium MDR Van A ATCC 51559
How it was run: (§1)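 Overnight MHB cultures at 37° C were diluted 40-fold and grown 2-3 hrs to mid-log, then added at 5×10e5 CFU/mL to twofold compound dilutions (8 to 0.003 μg/ml). Plates were incubated 24 h at 37° C and MIC scored by eye.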

[2] = test system: Staphylococcus aureus MRSA ATCC 43300; assay: MIC assay, S. aureus MRSA ATCC 43300
How it was run: as §1

[3] = test system: Streptococcus pneumoniae MDR ATCC 700677; assay: MIC assay, S. pneumoniae MDR ATCC 700677
How it was run: as §1

Compound	Minimum Inhibitory Concentration (MIC) E. faecium ATCC51559 [1]	Minimum Inhibitory Concentration (MIC) Staph. aureus ATCC43300 [2]	Minimum Inhibitory Concentration (MIC) S. pneumoniae ATCC 700677 [3]
CCCCCCCCCCC(=O)N[C@@H](CCCCN)C(=O)N[C@@H](CCCCN)C(=O)N[C@@H](CCCCNC(=O)CNC(=O)[C@H]1NC(=O)[C@H]2NC(=O)[C@H](NC(=O)[C@@H]3NC(=O)[C@H](CC(N)=O)NC(=O)[C@H](NC(=O)[C@@H](CC(C)C)NC)[C@H](O)c4ccc(c(Cl)c4)Oc4cc3cc(c4O[C@@H]3O[C@H](CO)[C@@H](O)[C@H](O)[C@H]3O[C@H]3C[C@](C)(N)[C@H](O)[C@H](C)O3)Oc3ccc(cc3Cl)[C@H]2O)c2ccc(O)c(c2)-c2c(O)cc(O)cc21)C(=O)O [MCC_000225]	x (x = >4)	xxx (xxx = 0.1-<1)	xxx (xxx = 0.1-<1)
CCCCCCCCCCCCCC(=O)N[C@@H](CCCCN)C(=O)N[C@@H](CCCCN)C(=O)N[C@@H](CCCCNC(=O)[C@H]1NC(=O)[C@H]2NC(=O)[C@H](NC(=O)[C@@H]3NC(=O)[C@H](CC(N)=O)NC(=O)[C@H](NC(=O)[C@@H](CC(C)C)NC)[C@H](O)c4ccc(c(Cl)c4)Oc4cc3cc(c4O[C@@H]3O[C@H](CO)[C@@H](O)[C@H](O)[C@H]3O[C@H]3C[C@](C)(N)[C@H](O)[C@H](C)O3)Oc3ccc(cc3Cl)[C@H]2O)c2ccc(O)c(c2)-c2c(O)cc(O)cc21)C(=O)NC [MCC_000224]	xxx (xxx = 0.1-<1)	xxxxx (xxxxx = <0.01)	xxxxx (xxxxx = <0.01)
CCCCCCCCC(=O)N[C@@H](CCCNC(=N)N)C(=O)N[C@@H](CCCCNC(=O)[C@H]1NC(=O)[C@H]2NC(=O)[C@H](NC(=O)[C@@H]3NC(=O)[C@H](CC(N)=O)NC(=O)[C@H](NC(=O)[C@@H](CC(C)C)NC)[C@H](O)c4ccc(c(Cl)c4)Oc4cc3cc(c4O[C@@H]3O[C@H](CO)[C@@H](O)[C@H](O)[C@H]3O[C@H]3C[C@](C)(N)[C@H](O)[C@H](C)O3)Oc3ccc(cc3Cl)[C@H]2O)c2ccc(O)c(c2)-c2c(O)cc(O)cc21)C(=O)O [MCC_007385]	x (x = >4)	xxx (xxx = 0.1-<1)	xxx (xxx = 0.1-<1)
CCCCCCCOc1ccc(C(=O)NC(CCCCN)C(=O)NC(CCCCN)C(=O)NC(CCCCNC(=O)C2NC(=O)C3NC(=O)C(NC(=O)C4NC(=O)C(CC(N)=O)NC(=O)C(NC(=O)C(CC(C)C)NC)C(O)c5ccc(c(Cl)c5)Oc5cc4cc(c5OC4OC(CO)C(O)C(O)C4OC4CC(C)(N)C(O)C(C)O4)Oc4ccc(cc4Cl)C3O)c3ccc(O)c(c3)-c3c(O)cc(O)cc32)C(=O)NC)cc1 (stereo not drawn) [MCC_000503]	xx (xx = 1-4)	xxxxx (xxxxx = <0.01)	xxxxx (xxxxx = <0.01)
CCCCCCCC(=O)NCCCC[C@H](NC(=O)CCCCCCC)C(=O)N[C@@H](CCCCN)C(=O)N[C@@H](CCCCN)C(=O)N[C@@H](CCCCNC(=O)[C@H]1NC(=O)[C@H]2NC(=O)[C@H](NC(=O)[C@@H]3NC(=O)[C@H](CC(N)=O)NC(=O)[C@H](NC(=O)[C@@H](CC(C)C)NC)[C@H](O)c4ccc(c(Cl)c4)Oc4cc3cc(c4O[C@@H]3O[C@H](CO)[C@@H](O)[C@H](O)[C@H]3O[C@H]3C[C@](C)(N)[C@H](O)[C@H](C)O3)Oc3ccc(cc3Cl)[C@H]2O)c2ccc(O)c(c2)-c2c(O)cc(O)cc21)C(=O)NC [MCC_000654]	xx (xx = 1-4)	xxxxx (xxxxx = <0.01)	xxxx (xxxx = 0.01-<0.1)
CCCCCCC(CCCC)C(=O)NCCCC[C@H](NC(=O)C(CCCC)CCCCCC)C(=O)N[C@@H](CCCCN)C(=O)N[C@@H](CCCCN)C(=O)N[C@@H](CCCCNC(=O)[C@H]1NC(=O)[C@H]2NC(=O)[C@H](NC(=O)[C@@H]3NC(=O)[C@H](CC(N)=O)NC(=O)[C@H](NC(=O)[C@@H](CC(C)C)NC)[C@H](O)c4ccc(c(Cl)c4)Oc4cc3cc(c4O[C@@H]3O[C@H](CO)[C@@H](O)[C@H](O)[C@H]3O[C@H]3C[C@](C)(N)[C@H](O)[C@H](C)O3)Oc3ccc(cc3Cl)[C@H]2O)c2ccc(O)c(c2)-c2c(O)cc(O)cc21)C(=O)NC (stereo partly drawn) [MCC_000773]	xxx (xxx = 0.1-<1)	xxxx (xxxx = 0.01-<0.1)	xxxx (xxxx = 0.01-<0.1)
CCCCCCCCCCCCCC(=O)N[C@@H](CCCCN)C(=O)N[C@@H](CCCCN)C(=O)NCC(=O)NCCCNC(=O)[C@H]1NC(=O)[C@H]2NC(=O)[C@H](NC(=O)[C@@H]3NC(=O)[C@H](CC(N)=O)NC(=O)[C@H](NC(=O)[C@@H](CC(C)C)NC)[C@H](O)c4ccc(c(Cl)c4)Oc4cc3cc(c4O[C@@H]3O[C@H](CO)[C@@H](O)[C@H](O)[C@H]3O[C@H]3C[C@](C)(N)[C@H](O)[C@H](C)O3)Oc3ccc(cc3Cl)[C@H]2O)c2ccc(O)c(c2)-c2c(O)cc(O)cc21 [MCC_000784]	xxxx (xxxx = 0.01-<0.1)	xxxxx (xxxxx = <0.01)	xxxxx (xxxxx = <0.01)
CCCCCCCCCCCCC(=O)N[C@@H](CCCCN)C(=O)N[C@@H](CCCCN)C(=O)N[C@@H](CCCCNC(=O)[C@H]1NC(=O)[C@H]2NC(=O)[C@H](NC(=O)[C@@H]3NC(=O)[C@H](CC(N)=O)NC(=O)[C@H](NC(=O)[C@@H](CC(C)C)NC)[C@H](O)c4ccc(c(Cl)c4)Oc4cc3cc(c4O[C@@H]3O[C@H](CO)[C@@H](O)[C@H](O)[C@H]3O[C@H]3C[C@](C)(N)[C@H](O)[C@H](C)O3)Oc3ccc(cc3Cl)[C@H]2O)c2ccc(O)c(c2)-c2c(O)cc(O)cc21)C(N)=O [MCC_000975]	xxx (xxx = 0.1-<1)	xxxxx (xxxxx = <0.01)	xxxxx (xxxxx = <0.01)
CCCCCCCC(=O)N[C@@H](CCCCN)C(=O)N[C@@H](CCCCN)C(=O)NCCCNC(=O)[C@H]1NC(=O)[C@H]2NC(=O)[C@H](NC(=O)[C@@H]3NC(=O)[C@H](CC(N)=O)NC(=O)[C@H](NC(=O)[C@@H](CC(C)C)NC)[C@H](O)c4ccc(c(Cl)c4)Oc4cc3cc(c4O[C@@H]3O[C@H](CO)[C@@H](O)[C@H](O)[C@H]3O[C@H]3C[C@](C)(N)[C@H](O)[C@H](C)O3)Oc3ccc(cc3Cl)[C@H]2O)c2ccc(O)c(c2)-c2c(O)cc(O)cc21 [MCC_005196]	xx (xx = 1-4)	xxx (xxx = 0.1-<1)	xxx (xxx = 0.1-<1)
CN[C@H](CC(C)C)C(=O)N[C@H]1C(=O)N[C@@H](CC(N)=O)C(=O)N[C@H]2C(=O)N[C@H]3C(=O)N[C@H](C(=O)N[C@H](C(=O)NCCCC[C@H](NC(=O)[C@H](CCCCN)NC(=O)[C@H](CCCCN)NC(=O)CC4CCCCC4)C(=O)O)c4cc(O)cc(O)c4-c4cc3ccc4O)[C@H](O)c3ccc(c(Cl)c3)Oc3cc2cc(c3O[C@@H]2O[C@H](CO)[C@@H](O)[C@H](O)[C@H]2O[C@H]2C[C@](C)(N)[C@H](O)[C@H](C)O2)Oc2ccc(cc2Cl)[C@H]1O [MCC_005502]	x (x = >4)	xx (xx = 1-4)	xx (xx = 1-4)
